# According to US4088778A, “Method for the treatment of hypertension” (priority 1975, dated 1978):
# How the values were obtained:
# [1] = Clinical Experiment II: general improvement; format: in vivo, human patients
# Protocol: (§1) 75 patients of hypertension or arteriosclerosis having subjective symptoms were tested. Some of them suffered from complications such as ischemia heart disease and cerebral thrombosis. They are detailed in Table 11.
# (§2) Two capsules were administered at one time, and the administration was conducted 3 times per day after eating. The duration of the continuous administration was 4 weeks. Combined use of drugs having the same functions as those of TN (vitamin E drugs, nicotinic acid, its derivatives and peripheral vasolidators) and minor tranquilizers was prohibited.
# With respect to patients of hypertension alone, the general improvement was evaluated collectively based on subjective symptoms and clinical test data to obtain results shown in Table 23.
# [2] = Clinical Experiment II: side effects; format: in vivo, human patients
# Protocol: as §1, §2
# Solubility = format: physicochemical
# [3] = Hypotensive effect on rats of spontaneous hypertension, old SHR; format: in vivo, rats (9-month-old male SHR); conditions: 100 mg/kg TN orally once a day
# Protocol: (B) Hypotensive Effect on Rats of Spontaneous Hypertension:
# Experiments were conducted by using two classes of rats of spontaneous hypertension (hereinafter referred to as "SHR"; provided by Nippon Rat K.K.) differing in the age. In the first experiment, 9-month-old chronic […] SHR (hereinafter referred to as "old SHR"), and in the second experiment, 7-week-old SHR in which hypertension was advancing (hereinafter referred to as "young SHR") was used.
# (1) Experiment on Old SHR:
# 40 of 9-month-old male SHR (having a body weight of 360 to 450 g) were divided into 10 groups, each consisting of 4 rats, and each group was placed in a cage. One of the rats in each cage was used as the non-administered control animal, and 20 mg/Kg of TN, 100 mg/Kg of TN and 88 mg/Kg of TA (equimolar to 100 mg/Kg of TN) were administered to the remaining 3 rats, respectively. Each hypotensive agent was orally administered once a day over a period of 4 weeks in the form of a suspension in gum arabic. Gum arabic solution was administered to the Control (non-administered) group. Simultaneously with initiation of the administration, drinking water was exchanged from service water to a 1% aqueous solution of sodium chloride.
compound,measurement,setting,value
"Cc1c(C)c2c(c(C)c1OC(=O)c1cccnc1)CCC(C)(CCCC(C)CCCC(C)CCCC(C)C)O2 (racemic) [TN, dl-α-tocopheryl nicotinate]",General improvement: Improvement Ratio,"[1]; P group 52.94, P < 0.05",86.36%
same,general improvement versus P group,"[1]; conclusion of both clinical experiments, significance lower than 0.5%",significantly excellent over that in the P group at a level of significance lower than 0.5%
same,general improvement versus P group,[1]; level of significance lower than 5%,excellent over that in the P group at a level of significance lower than 5%
same,General improvement: Not Changed,"[1]; number of patients, total 22",3
same,General improvement: Partial Improvement,"[1]; number of patients, total 22",7
same,General improvement: Remarkable Improvement,"[1]; number of patients, total 22",4
same,General improvement: Slight Improvement,"[1]; number of patients, total 22",8
same,General improvement: Worsened,"[1]; number of patients, total 22",0
same,side effect: constipation,[2]; among 41 patients,another patient complained of constipation
same,side effect: light lack of appetite,[2]; among 41 patients,one
same,side effects in other patients,[2]; among 41 patients,no side effect was observed
same,side effects versus conventional hypotensive agents,[2]; conclusion of both clinical experiments,much more reduced in TN than in conventional hypotensive agents
same,other various blood tests and the like: undesirable side effects,"[2]; human, in vivo","None of results of other various blood tests and the like were suggestive of undesirable, side effects"
same,solubility in organic solvents,Solubility,"easily soluble in acetone, benzene, chloroform, ether and ethanol"
same,solubility in water,Solubility,hardly soluble in water
same,difference of the blood pressure between control and administered group,[3]; 3rd week,about 30 mm Hg
same,lowering of blood pressure on the average,[3]; after 1 week,15 mm Hg
